In US11192900B2, “Substituted 1,6-dihydropyridinones and 1,2-dihydroisoquinolinones as bet inhibitors” (NUVATION BIO INC., priority 2018, dated 2021):
pIC50: −log10 of the molar value.

How the values were obtained:
[1] = molecular target: BRD4-1 (Homo sapiens (Human), UniProt O60885); experiment: Bromodomain and Extraterminal Domain (BET) Binding Assay; settings: Table 3; read-out: BRD4-1 IC50
Experimental: (§1) The bromodomain binding assays were performed by Reaction Biology Corp., Malvern, Pa., USA (www.reactionbiology.com). The BET binding assays were conducted in 384 well microplates in assay buffer (50 mM HEPES-HCl, pH 7.5, 100 mM NaCl, 1 mg/ml BSA, 0.05% CHAPS, and 0.5% DMSO) with compounds added as DMSO stocks at a single concentration or with 10-point dose response titrations. BET protein or assay buffer were delivered to the appropriate wells of the microplate. Test compound was then delivered by acoustic technology via a Labcyte Echo550 liquid handler. The microplate was centrifuged for 5 min and pre-incubated for 30 min at RT with gentle shaking. The ligand (histone H4 peptide (1-21) K5/8/12/16Ac-biotin) was delivered and the microplate was again centrifuged for 5 min and allowed to incubate for 30 min at RT with gentle shaking. Donor beads were then added in the absence of light and the microplate was centrifuged and gently shaken. After 5 min, acceptor beads were added in the absence of light and the microplate was centrifuged and gently shakenin the dark for 60 min. The microplate was read using a Perkin Elmer EnSpire Alpha plate reader (λEx/λEm=680/520-620 nm). Percent inhibition was calculated relative to positive and negative controls on a per plate basis. For titration experiments, IC50 values were determined by fitting the percent inhibition versus compound concentration.

[2] = molecular target: BRD4-2 (Homo sapiens (Human), UniProt O60885); experiment: as above; settings: Table 3; read-out: BRD4-2 IC50
Experimental: as §1

Row | pIC50 [1] | pIC50 [2] | Compound
1 | 4.80 | 6.36 | C=CC(=O)Nc1ccc(Oc2c(C)cc(F)cc2C)c(-c2cn(C)c(=O)c3ccccc23)c1 [Compound 408, N-(4-(4-fluoro-2,6-dimethylphenoxy)-3-(2-methyl-1-oxo-1,2-dihydroisoquinolin-4-yl)phenyl)acrylamide]
2 | 8.22 | 7.59 | C=CS(=O)(=O)Nc1ccc(Oc2ccc(F)cc2F)c(-c2cc(N(C)C)c(=O)n(C)c2)c1 [Compound 16, N-(4-(2,4-difluorophenoxy)-3-(5-(dimethylamino)-1-methyl-6-oxo-1,6-dihydropyridin-3-yl)phenyl)ethenesulfonamide]
3 | 5.13 | 8.70 | C/C=C/C(=O)Nc1ccc(Oc2c(C)cccc2C)c(-c2cn(C)c(=O)c3cc(C(=O)NCC)sc23)c1 [Compound 611, (E)-7-(5-but-2-enamido-2-(2,6-dimethylphenoxy)phenyl)-N-ethyl-5-methyl-4-oxo-4,5-dihydrothieno[3,2-c]pyridine-2-carboxamide]
4 | 7.52 | 7.82 | C=CC(=O)Nc1ccc(Oc2ccc(F)cc2F)c(-c2cc(N(C)C)c(=O)n(C)c2)c1 [Compound 29, N-(4-(2,4-difluorophenoxy)-3-(5-(dimethylamino)-1-methyl-6-oxo-1,6-dihydropyridin-3-yl)phenyl)acrylamide]
5 | 5.77 | 5.66 | C=CC(=O)Nc1ccc(Nc2ccc(F)cc2F)c(-c2cn(C)c(=O)c3ccccc23)c1 [Compound 305, N-(4-(2,4-difluorophenylamino)-3-(2-methyl-1-oxo-1,2-dihydroisoquinolin-4-yl)phenyl)acrylamide]
6 | 6.98 | 7.24 | C=CC(=O)Nc1ccc(Oc2ccc(F)cc2)c(-c2cc(NC)c(=O)n(C)c2)c1 [Compound 30, N-(4-(4-fluorophenoxy)-3-(1-methyl-5-(methylamino)-6-oxo-1,6-dihydropyridin-3-yl)phenyl)acrylamide]
7 | 6.73 | 7.19 | C=CC(=O)Nc1ccc(Oc2ccc(F)cc2F)c(-c2cc(NC)c(=O)n(C)c2)c1 [Compound 1, N-(4-(2,4-difluorophenoxy)-3-(1-methyl-5-(methylamino)-6-oxo-1,6-dihydropyridin-3-yl)phenyl)acrylamide]
8 | – | < 5.00 | C=CC(=O)n1cc(-c2cc(NS(=O)(=O)CC)ccc2Oc2ccc(F)cc2F)c2ccccc2c1=O [Compound 662, N-(3-(2-acryloyl-1-oxo-1,2-dihydroisoquinolin-4-yl)-4-(2,4-difluorophenoxy)phenyl)ethanesulfonamide]
9 | – | 6.87 | C=CC(=O)N(C)c1ccc(Oc2ccc(F)cc2F)c(-c2cc(NC)c(=O)n(C)c2)c1 [Compound 394, N-(4-(2,4-difluorophenoxy)-3-(1-methyl-5-(methylamino)-6-oxo-1,6-dihydropyridin-3-yl)phenyl)-N-methylacrylamide]
10 | – | 5.49 | C=CC(=O)Nc1ccc(OC(F)(F)F)c(-c2cn(C)c(=O)c3ccccc23)c1 [Compound 27, N-(3-(2-methyl-1-oxo-1,2-dihydroisoquinolin-4-yl)-4-(trifluoromethoxy)phenyl)acrylamide]

Row | Compound | pIC50 [1] | pIC50 [2]
11 | C=CC(=O)Nc1ccc(Oc2c(C)cccc2C)c(-c2cn(C)c(=O)c3ccccc23)c1 [Compound 397, N-(4-(2,6-dimethylphenoxy)-3-(2-methyl-1-oxo-1,2-dihydroisoquinolin-4-yl)phenyl)acrylamide] | 5.01 | 6.26
12 | C=CC(=O)Nc1ccc(Nc2c(C)cccc2C)c(-c2cn(C)c(=O)c3ccccc23)c1 [Compound 313, N-(4-(2,6-dimethylphenylamino)-3-(2-methyl-1-oxo-1,2-dihydroisoquinolin-4-yl)phenyl)acrylamide] | < 5.00 | 6.05
